Test results as given in patent US5595995A, “Pyridyl-propan-2-yl esters of 1-adamantane carboxylates” (priority 1992, dated 1997).
pIC50: −log10 of the molar value.

Experiments:
[1] = target: T1, lyase (Homo sapiens, UniProt P05093); assay: biochemical
T1 sequence (P05093 1-508): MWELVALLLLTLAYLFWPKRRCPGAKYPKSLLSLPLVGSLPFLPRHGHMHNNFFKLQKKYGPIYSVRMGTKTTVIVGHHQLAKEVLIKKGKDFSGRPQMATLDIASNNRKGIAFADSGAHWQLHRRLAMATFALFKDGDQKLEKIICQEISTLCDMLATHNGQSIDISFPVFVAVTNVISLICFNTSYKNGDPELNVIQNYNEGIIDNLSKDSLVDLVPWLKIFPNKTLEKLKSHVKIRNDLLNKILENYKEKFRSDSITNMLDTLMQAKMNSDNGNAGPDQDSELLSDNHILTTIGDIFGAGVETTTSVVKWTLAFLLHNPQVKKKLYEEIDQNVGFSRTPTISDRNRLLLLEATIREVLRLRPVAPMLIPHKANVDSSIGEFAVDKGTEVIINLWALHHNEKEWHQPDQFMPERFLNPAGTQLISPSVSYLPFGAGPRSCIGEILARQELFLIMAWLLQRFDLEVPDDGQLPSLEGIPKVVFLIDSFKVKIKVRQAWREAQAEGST
Description: (§1) In the hydroxylase assay, the "Nucleosil" pre-column for separation of steroids was also "C18". In the lyase assay, the reaction was stopped after 1/2 hour. […] The enzyme activity was measured from 3 (not 4) concentrations of compound.

[2] = target: T2, 17α-hydroxylase/C17-20 lyase enzyme complex (Homo sapiens, UniProt P05093); assay: hydroxylase/lyase inhibition, general statements on potency; format: biochemical; conditions: of the order of; greater than the less good compounds of formula (3)
T2 construct: for hydroxylase determinations, the microsomal preparation, prepared according to S. E. Bartie et al; from tissue
T2 sequence (P05093 1-508): T1 sequence (P05093 1-508)
Description: as §1

[3] = target: T3, hydroxylase (Homo sapiens, UniProt P05093); assay: biochemical
T3 sequence (P05093 1-508): T1 sequence (P05093 1-508)
Description: as §1

[4] = resistance of the esters to hydrolytic cleavage (method of R. McCague et al., 1990); conditions: compared with the other esters of Examples 1-8
[5] = test system: acute toxicity in mice of 4-vinylpyridine; conditions: J. Med. Chem. 16, 865-867 (1973); cited from earlier work
[6] = test system: a species of yeast; conditions: Korytnyk and Fricke, J. Med. Chem. 11, 180-181 (1968); cited from earlier work
[7] = target: T4, aromatase (Homo sapiens, UniProt P11511); assay: biochemical
T4 sequence (P11511 1-503): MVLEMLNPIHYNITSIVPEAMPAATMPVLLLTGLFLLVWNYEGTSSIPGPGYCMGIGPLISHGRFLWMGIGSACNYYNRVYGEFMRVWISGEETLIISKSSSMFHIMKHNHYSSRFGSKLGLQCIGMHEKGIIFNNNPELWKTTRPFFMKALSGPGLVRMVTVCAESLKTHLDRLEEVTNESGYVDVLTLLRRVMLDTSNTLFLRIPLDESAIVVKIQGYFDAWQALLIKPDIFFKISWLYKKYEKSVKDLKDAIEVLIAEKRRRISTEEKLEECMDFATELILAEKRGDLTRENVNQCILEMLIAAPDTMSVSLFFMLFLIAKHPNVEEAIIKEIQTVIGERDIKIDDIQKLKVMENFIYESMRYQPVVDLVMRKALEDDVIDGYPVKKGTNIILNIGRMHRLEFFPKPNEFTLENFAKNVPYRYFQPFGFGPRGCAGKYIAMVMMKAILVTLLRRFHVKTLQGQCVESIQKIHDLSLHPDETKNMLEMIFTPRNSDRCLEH

| SMILES | pIC50 [1] | pIC50 [3] | pIC50 [7] | also measured |
| --- | --- | --- | --- | --- |
| O=C(NCc1ccncc1)C1CCCCC1 [Cy NH H H 4, reference compound] | 5.00 | 4.40 |  | IC50 against lyase and hydroxylase relative to the less good compounds of formula (3) [2]: ~20 × |
| CC(C)(OC(=O)C12CC3CC(CC(C3)C1)C2)c1cccnc1 [Example 8, 2-(3-Pyridyl)propan-2-yl 1-adamantanecarboxylate] |  |  |  | resistance to hydrolytic cleavage [4]: considerably more resistant to cleavage than the other esters |
| Cc1c(COC(=O)C23CC4CC(CC(C4)C2)C3)cnc(CO)c1O |  |  |  | reversal of the acute toxicity of 4-vinylpyridine [5]: reverse the acute toxicity in mice of 4-vinylpyridine; growth inhibition of yeast [6]: weak growth inhibitors of a species of yeast |
| CC(Cc1cccnc1)C(=O)C12CC3CC(CC(C3)C1)C2 (racemic) [Example 11, (±)-1-(1-Adamantyl)-2-methyl-3-(3-pyridyl)propan-1-one] | 6.15 | 6.00 | 5.57 |  |
| CC(C)(OC(=O)C12CC3CC(CC(C3)C1)C2)c1ccncc1 [Example 4, 2-(4-Pyridyl)propan-2-yl 1-adamantanecarboxylate] |  |  |  | resistance to hydrolytic cleavage [4]: considerably more resistant to cleavage than the other esters |
| O=C(CCc1cccnc1)C12CC3CC(CC(C3)C1)C2 [Example 9, 1-(1-Adamantyl)-3-(3-pyridyl)propan-1-one] | 6.35 | 5.66 | 5.47 |  |
| CC(CC(=O)C12CC3CC(CC(C3)C1)C2)c1cccnc1 (racemic) [Example 10, (±)-1-(1-Adamantyl)-3-(3-pyridyl)butan-1-one] | 6.30 | 5.89 | 5.85 |  |
| Cc1c(COC(=O)C23CC4CC(CC(C4)C2)C3)cc(CO)nc1O |  |  |  | growth inhibition of yeast [6]: weak growth inhibitors of a species of yeast |
